# Laboratory results reported in patent US10959970B2, “Methods of treating hair related conditions” (Nogra Pharma Limited, priority 2009, dated 2021).
# Legend:
# [1] = system: human hair follicle pigmentation; assay: Fontana-Masson histomorphometry/melanin staining on hair follicle cryosections; type: cell-based; conditions: FIG. 2
# Procedure: (§1) A Philpott model test system of microdissected organ-cultured hair follicles is used. Hair follicles and skin punches were divided into 4 groups (3 HFs/well) incubated with the test substance Compound ‘A in different concentrations for 6 days. On day 0, microdissection measurements of hair length are conducted. On day 1, the medium is changed and addition of compound A (with measurement of hair length). On day 3, the medium is changed and compound a is added (with measurement of hair length). On day 6, hair length is measured and embedding occurs.
# sebocytes [2] = assay: GC-MS assay of fatty acids and squalene in lipid extract of sebocytes stimulated with LA and TST; type: cell-based, human; conditions: sebocyte lipid extract, A 1 mM
# Procedure: In order to evaluate in greater detail the inhibition by Compound A of sebogenesis induced by LA and TST, assays were performed on the lipid extract of the sebocytes using gas chromatography coupled with mass spectrometry (GC-MS). The sebocytes were treated by the scheme described for the Nile Red assay. At the end of the treatment, the cells were removed and then the lipid extraction was done by using organic solvents. One part of the extract was used to analyze the fatty acid composition, while the other part was used for the determination of the quantity of squalene, a lipid characteristic of sebum. […] (FIG. 14B)
# TNF-alpha mRNA = assay: Inhibition of TNF-alpha mRNA induction by H2O2 in keratinocytes (Real time RT-PCR); type: cell-based, human; conditions: H2O2 300 μM, 6 h, FIG. 8
# Procedure: Analysis of the inhibition of compound A of the mRNA induction of the proinflammatory cytokine TNF-alpha by H2O2 was carried out by Real time RT-PCR. The keratinocytes were plated in dishes of 6 cm/Ø. At 80% confluence, the cells were treated with H2O2 (300 μM) in presence of Compound A at the three concentrations (0.01-0.1-0.5 mM) for 6 h. At the end of the treatment, the cells were lysed in a lysis buffer and subjected to isolation and subsequent retrotranscription of the RNA. […] (FIG. 8)
# sebocytes [3] = assay: Nile Red assay of sebogenesis induced by linoleic acid and testosterone in sebocytes; type: cell-based, human; conditions: for sebogenesis (intracellular lipids, Nile Red) induced by LA and LA+TST: TST (20 nM), 24 h
# Procedure: Analysis of the inhibition by (compound A) of sebogenesis induced by treatment with linoleic acid (LA) and with testosterone (TST) was evaluated by spectrofluorimetry, using Nile Red as selective marker of intracellular lipids (Nile Red Assay). The sebocytes were plated in wells of a 24-well plate. Next day, they were deprived of serum (2%) and after 24 h they were stimulated, for another 24 h, with LA (10^-4M), TST (20 nM) in presence or in absence of A (1 mM). At the end of the treatment, the sebocytes were stained with Nile Red. The quantitative analysis was done by spectrofluorimetry, which made it possible to distinguish between neutral lipids and polar lipids based on the different wavelength of excitation and emission. […] (FIG. 13).
# Analysis of the inhibition by compound A of sebogenesis induced by treatment with linoleic acid (LA) and with testosterone (TST) was evaluated by spectrofluorimetry, using Nile Red as selective marker of intracellular lipids (Nile Red Assay). The sebocytes were plated in wells of a 24-well plate. Next day, they were deprived of serum (2%) and after 24 h they were stimulated, for another 24 h, with LA (10^-4M), TST (20 nM) in presence or in absence of compound A (1 mM). At the end of the treatment, the sebocytes were stained with Nile Red. The quantitative analysis was done by spectrofluorimetry, which made it possible to distinguish between neutral lipids and polar lipids based on the different wavelength of excitation and emission.
# K19 = K19 cells in treated hair follicles and skin; type: cell-based, human; conditions: for K19 cells: lower hair follicle, FIG. 6
# Procedure: as §1
# IL-6 = assay: Inhibition of IL-6 protein induction by LPS in keratinocytes (ELISA); type: cell-based, human; conditions: LPS 10 μg/ml, 0.01-0.1-0.5 mM, 24 h, supernatant ELISA, FIG. 11
# Procedure: Analysis of the inhibition by Compound A of the protein induction of IL-6 by LPS (lipopolysaccharide) was done with the ELISA kit. The keratinocytes were plated in wells of a 24-well plate. At 80% confluence, the cells were treated with LPS (10 μg/ml) in presence of compound A at the three concentrations (0.01-0.1-0.5 mM) for 24 h. At the end of the treatment, the supernatant was decanted, centrifuged so as to remove any cell detritus, and kept at −80° C. until the time of the analysis. The quantity of IL-6 present in the supernatant was normalized by the protein concentration of the sample itself.
# K15 = K15 expression in treated hair follicles and skin; type: cell-based, human; conditions: FIG. 5
# Procedure: as §1
# [4] = system: microdissected organ-cultured hair follicles; assay: Hair shaft elongation in Philpott model of microdissected organ-cultured hair follicles; type: cell-based, human; conditions: 6 days, lower dose of compound A, FIG. 1
# Procedure: as §1
# [5] = system: human primary keratinocytes; assay: MTT test on human primary keratinocytes; type: cell-based; conditions: 0.1-1-2 mM, 24 and 48 h, FIG. 7
# Procedure: To assess the possible toxic or cytostatic effect of the substances under study, a spectrophotometric test (MTT) was carried out. The human primary keratinocytes, isolated from skin biopsies, were plated in wells of a 24-well plate in suitable medium with addition of antibiotics, calcium, and specific growth factors. At around 70% confluence, the cells were exposed to the presence of Compound A, at various concentrations (0.1-1-2 mM), for 24 and 48 h in suitable medium with addition of antibiotics, calcium, but no growth factors. This culture condition was done for all the subsequent experiments. At the end of the treatment, the MTT test was done.
# sebocytes [6] = assay: MTT test on human sebocytes; type: cell-based; conditions: 0.1-0.5-1-2 mM, 24 and 48 h, FIG. 12
# Procedure: To assess the possible toxic or cytostatic effect of the substances under study, a spectrophotometric test (MTT) was carried out. The sebocytes were plated in wells of a 24-well plate in suitable medium with addition of antibiotics, calcium and EGF. At roughly 70% confluence, the cells were exposed to the presence of compound A, in various concentrations (0.1-0.5-1-2 mM), for 24 and 48 h. At the end of the treatment, the MTT test was performed. […] (FIG. 12)
# IL-6 mRNA = assay: Inhibition of IL-6 mRNA induction by IFN-γ in keratinocytes (Real time RT-PCR); type: cell-based, human; conditions: IFN-γ 30 ng/ml, 0.01-0.1-0.5 mM, 6 h, FIG. 9
# Procedure: Analysis of the inhibition by compound A of the mRNA induction of the proinflammatory cytokine IL-6 by IFN-γ was done through Real time RT-PCR. The keratinocytes were plated in dishes of 6 cm/Ø.
# At 80% confluence, the cells were treated with IFN-γ (30 ng/ml) in presence of compound A at the three concentrations (0.01-0.1-0.5 mM) for 6 h.
# [7] = system: human hair matrix keratinocytes; assay: Ki-67/Tunel fluorescent staining of hair follicles; type: cell-based; conditions: high doses of compound A; FIG. 4
# Procedure: as §1
# Ki-67/Tunel staining was also conduct on the hair follicles using fluorescent staining.
smiles,measurement,setting,value
"CO[C@H](Cc1ccc(NC(C)=O)cc1)C(=O)O [Compound A, N-acetyl-(R)-(−)-3-(4-aminophenyl)-2-methoxypropionic acid]",human hair follicle pigmentation (melanin staining),[1],stimulation of human hair follicle pigmentation
same,fatty acid assay of lipidogenic stimulus induced by LA and LA+TST,sebocytes [2]; FIG. 14A,reduced
same,squalene analysis of lipidogenic stimulus induced by LA and LA+TST,sebocytes [2]; FIG. 14B,confirmed
same,expression of the mRNA of TNF-α induced by H2O2,"TNF-alpha mRNA; higher dose (0.5 mM), effect similar to troglitazone (Tg)",complete inhibition
same,expression of the mRNA of TNF-α induced by H2O2,TNF-alpha mRNA; two higher doses (0.1 mM; 0.5 mM),able to inhibit
same,"sebogenesis (intracellular lipids, Nile Red) induced by LA and LA+TST","sebocytes [3]; Example 9, LA (10^-4M), A 1 mM, FIG. 13",able to reduce the lipidogenic stimulus
same,"sebogenesis (intracellular lipids, Nile Red) induced by LA and LA+TST","sebocytes [3]; Example 11, LA (10^-4M), compound A 1 mM, FIG. 15",able to reduce the lipidogenic stimulus
same,influence of the times of treatment on reduction of the lipidogenic stimulus,"sebocytes [3]; Example 11, Nile Red assay, FIG. 15",No differences were observed
same,K19 cells,K19; 10× higher concentration,down regulation
same,K19 cells,K19; lower concentration,significant upregulation
same,K19 expression,K19; skin,no measurable expression
same,protein expression of IL-6 induced by LPS,IL-6,"inhibit, in dose-dependent manner"
same,K15 expression,"K15; lower hair follicle, lower doses of compound A",significant upregulation
same,K15 expression,K15; treated skin,no measurable expression
same,hair shaft elongation,[4],stimulates hair shaft elongating
same,cellular vitality (MTT),[5],did not show any effect on cellular vitality
same,cell vitality (MTT),sebocytes [6],no effects on cell vitality
same,dose dependence of inhibition of IL-6 mRNA expression induced by IFN-γ,IL-6 mRNA,does not appear to be dose-dependent
same,mRNA expression of IL-6 induced by IFN-γ,IL-6 mRNA,inhibit the expression of the inflammatory cytokine
same,proliferation and apoptosis of hair matrix keratinocytes (Ki67/Tunel immunohistomorphometry),[7],stimulates both proliferation and apoptosis
